# Results taken from US10604524B2, “Pyrropyrimidine compounds as MNKs inhibitors” (LIFEARC, priority 2015, dated 2020).
# Assays:
# Experiment in all cases: Kinase selectivity screen
# GSK3B = GSK3B (Homo sapiens, UniProt P49841); conditions: read-out: % Inhibition GSK3B
# ROS1 = ROS1 (Homo sapiens, UniProt P08922); conditions: read-out: % Inhibition ROS1
# BTK = BTK (Homo sapiens, UniProt Q06187); conditions: read-out: % Inhibition BTK
# SRPK1 = SRPK1 (Homo sapiens, UniProt Q96SB4); conditions: read-out: % Inhibition SRPK1
# STK11 = STK11 (Homo sapiens, UniProt Q15831); conditions: read-out: % Inhibition STK11
# EGFR = EGFR (Homo sapiens, UniProt P00533); conditions: read-out: % Inhibition EGFR
# FES = FES (Homo sapiens, UniProt P07332); conditions: read-out: % Inhibition FES
# PRAK = PRAK (Homo sapiens, UniProt Q8IW41); conditions: read-out: % Inhibition PRAK
# ACVR1B = ACVR1B (Homo sapiens, UniProt P36896); conditions: read-out: % Inhibition ACVR1B
# SGK1 = SGK1 (Homo sapiens, UniProt O00141); conditions: read-out: % Inhibition SGK1
# JAK3 = JAK3 (Homo sapiens, UniProt P52333); conditions: read-out: % Inhibition JAK3
# PAK4 = PAK4 (Homo sapiens, UniProt O96013); conditions: read-out: % Inhibition PAK4
# NTRK1 = NTRK1 (Homo sapiens, UniProt P04629); conditions: read-out: % Inhibition NTRK1
# AKT1 = AKT1 (Homo sapiens, UniProt P31749); conditions: read-out: % Inhibition AKT1
# CDK1/CCNB1 = CDK1/CCNB1 (Homo sapiens, UniProt P06493); conditions: read-out: % Inhibition CDK1/CCNB1
# FLT1 = FLT1 (Homo sapiens, UniProt P17948); conditions: read-out: % Inhibition FLT1
# CDK2/CCNA2 = CDK2/CCNA2 (Homo sapiens, UniProt P24941); conditions: read-out: % Inhibition CDK2/CCNA2
# IGF1R = IGF1R (Homo sapiens, UniProt P08069); conditions: read-out: % Inhibition IGF1R
# BLK = BLK (Homo sapiens, UniProt P51451); conditions: read-out: % Inhibition BLK
# PIK3C2G = PIK3C2G (Homo sapiens, UniProt O75747); conditions: read-out: % Inhibition PIK3C2G
# FGFR1 = FGFR1 (Homo sapiens, UniProt P11362); conditions: read-out: % Inhibition FGFR1
# FER = FER (Homo sapiens, UniProt P16591); conditions: read-out: % Inhibition FER
# NEK2 = NEK2 (Homo sapiens, UniProt P51955); conditions: read-out: % Inhibition NEK2
# CaMK1 = CaMK1 (Homo sapiens, UniProt Q14012); conditions: read-out: % Inhibition CaMK1
# EPHB4 = EPHB4 (Homo sapiens, UniProt P54760); conditions: read-out: % Inhibition EPHB4
# KDR = KDR (Homo sapiens, UniProt P35968); conditions: read-out: % Inhibition KDR
# ALK = ALK (Homo sapiens, UniProt Q9UM73); conditions: read-out: % Inhibition ALK
# LCK = LCK (Homo sapiens, UniProt P06239); conditions: read-out: % Inhibition LCK
# ERBB4 = ERBB4 (Homo sapiens, UniProt Q15303); conditions: read-out: % Inhibition ERBB4
# CHEK1 = CHEK1 (Homo sapiens, UniProt O14757); conditions: read-out: % Inhibition CHEK1
# PIK3CG = PIK3CG (Homo sapiens, UniProt P48736); conditions: read-out: % Inhibition PIK3CG
# CDK6/CCND3 = CDK6/CCND3 (Homo sapiens, UniProt Q00534); conditions: read-out: % Inhibition CDK6/CCND3
# STK4 = STK4 (Homo sapiens, UniProt Q13043); conditions: read-out: % Inhibition STK4
# IRAK4 = IRAK4 (Homo sapiens, UniProt Q9NWZ3); conditions: read-out: % Inhibition IRAK4
# ROCK2 = ROCK2 (Homo sapiens, UniProt O75116); conditions: read-out: % Inhibition ROCK2
# Sequence of NTRK1 (P04629 33-796, species assumed): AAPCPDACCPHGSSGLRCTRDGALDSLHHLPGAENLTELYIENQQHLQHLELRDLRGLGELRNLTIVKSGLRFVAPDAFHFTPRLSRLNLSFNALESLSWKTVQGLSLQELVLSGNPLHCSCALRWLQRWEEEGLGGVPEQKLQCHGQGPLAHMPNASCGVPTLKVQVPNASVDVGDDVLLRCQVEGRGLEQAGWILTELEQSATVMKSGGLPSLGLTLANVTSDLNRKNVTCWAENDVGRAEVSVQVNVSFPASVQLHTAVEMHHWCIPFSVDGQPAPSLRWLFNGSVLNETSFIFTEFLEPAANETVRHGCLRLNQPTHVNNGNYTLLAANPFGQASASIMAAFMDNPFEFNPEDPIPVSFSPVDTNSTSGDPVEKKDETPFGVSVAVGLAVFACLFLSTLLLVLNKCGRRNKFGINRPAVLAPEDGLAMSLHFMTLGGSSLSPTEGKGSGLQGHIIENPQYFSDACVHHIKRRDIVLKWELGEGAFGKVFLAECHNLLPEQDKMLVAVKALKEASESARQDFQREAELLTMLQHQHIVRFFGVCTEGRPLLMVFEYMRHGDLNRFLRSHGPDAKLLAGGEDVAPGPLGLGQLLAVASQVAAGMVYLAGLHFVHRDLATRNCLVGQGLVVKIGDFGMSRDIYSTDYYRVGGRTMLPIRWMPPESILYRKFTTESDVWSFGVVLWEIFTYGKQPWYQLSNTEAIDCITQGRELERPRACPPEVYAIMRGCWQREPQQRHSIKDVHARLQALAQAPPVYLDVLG
# Sequence of BTK (Q06187 whole entry, species assumed): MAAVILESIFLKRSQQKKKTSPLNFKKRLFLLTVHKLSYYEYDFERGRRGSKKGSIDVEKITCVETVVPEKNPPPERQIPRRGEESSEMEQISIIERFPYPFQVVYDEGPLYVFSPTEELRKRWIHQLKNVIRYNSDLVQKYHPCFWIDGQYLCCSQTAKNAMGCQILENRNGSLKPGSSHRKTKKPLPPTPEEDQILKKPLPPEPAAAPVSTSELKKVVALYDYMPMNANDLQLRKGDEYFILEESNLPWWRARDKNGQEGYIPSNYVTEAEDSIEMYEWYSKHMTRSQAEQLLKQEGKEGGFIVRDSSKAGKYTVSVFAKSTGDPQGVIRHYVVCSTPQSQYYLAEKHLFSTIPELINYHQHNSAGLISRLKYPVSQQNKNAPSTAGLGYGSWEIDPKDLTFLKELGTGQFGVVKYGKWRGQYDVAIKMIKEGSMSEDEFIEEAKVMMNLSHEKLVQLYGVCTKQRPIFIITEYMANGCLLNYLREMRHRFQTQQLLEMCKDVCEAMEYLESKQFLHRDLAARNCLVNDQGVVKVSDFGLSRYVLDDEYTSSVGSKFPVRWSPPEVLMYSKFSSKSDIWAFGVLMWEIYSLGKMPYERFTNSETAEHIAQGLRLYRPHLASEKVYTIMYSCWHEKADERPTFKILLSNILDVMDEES
# Sequence of JAK3 (P52333 whole entry, species assumed): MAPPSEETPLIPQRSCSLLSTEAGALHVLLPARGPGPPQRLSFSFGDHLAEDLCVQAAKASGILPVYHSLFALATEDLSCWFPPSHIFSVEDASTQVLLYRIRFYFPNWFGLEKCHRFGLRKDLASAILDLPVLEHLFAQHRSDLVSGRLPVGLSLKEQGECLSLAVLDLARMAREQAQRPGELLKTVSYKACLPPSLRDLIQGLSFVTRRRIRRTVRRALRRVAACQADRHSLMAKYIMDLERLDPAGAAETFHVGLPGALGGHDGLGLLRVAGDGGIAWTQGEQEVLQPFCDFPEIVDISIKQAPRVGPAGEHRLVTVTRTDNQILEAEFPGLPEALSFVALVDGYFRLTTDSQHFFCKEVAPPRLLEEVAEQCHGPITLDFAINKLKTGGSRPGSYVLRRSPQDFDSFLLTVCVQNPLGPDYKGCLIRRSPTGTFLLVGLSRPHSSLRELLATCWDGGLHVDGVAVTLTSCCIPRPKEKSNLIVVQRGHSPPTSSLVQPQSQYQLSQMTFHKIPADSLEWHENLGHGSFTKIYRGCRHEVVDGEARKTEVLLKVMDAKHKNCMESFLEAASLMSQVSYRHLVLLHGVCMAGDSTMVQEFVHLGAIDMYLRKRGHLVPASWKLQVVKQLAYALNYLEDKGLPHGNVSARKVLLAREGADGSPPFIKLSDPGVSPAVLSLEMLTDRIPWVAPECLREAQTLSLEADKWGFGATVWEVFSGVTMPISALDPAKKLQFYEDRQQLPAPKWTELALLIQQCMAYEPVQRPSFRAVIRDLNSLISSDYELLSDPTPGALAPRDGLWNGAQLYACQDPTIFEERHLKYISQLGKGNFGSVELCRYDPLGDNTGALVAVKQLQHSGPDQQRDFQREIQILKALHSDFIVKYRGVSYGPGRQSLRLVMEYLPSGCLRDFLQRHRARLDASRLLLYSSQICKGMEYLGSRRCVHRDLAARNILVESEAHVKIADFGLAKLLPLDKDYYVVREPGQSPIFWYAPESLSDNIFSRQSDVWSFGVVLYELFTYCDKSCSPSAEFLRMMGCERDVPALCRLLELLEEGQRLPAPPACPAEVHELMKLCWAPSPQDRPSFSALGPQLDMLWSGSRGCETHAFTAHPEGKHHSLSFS
# Sequence of PRAK (Q8IW41 whole entry, species assumed): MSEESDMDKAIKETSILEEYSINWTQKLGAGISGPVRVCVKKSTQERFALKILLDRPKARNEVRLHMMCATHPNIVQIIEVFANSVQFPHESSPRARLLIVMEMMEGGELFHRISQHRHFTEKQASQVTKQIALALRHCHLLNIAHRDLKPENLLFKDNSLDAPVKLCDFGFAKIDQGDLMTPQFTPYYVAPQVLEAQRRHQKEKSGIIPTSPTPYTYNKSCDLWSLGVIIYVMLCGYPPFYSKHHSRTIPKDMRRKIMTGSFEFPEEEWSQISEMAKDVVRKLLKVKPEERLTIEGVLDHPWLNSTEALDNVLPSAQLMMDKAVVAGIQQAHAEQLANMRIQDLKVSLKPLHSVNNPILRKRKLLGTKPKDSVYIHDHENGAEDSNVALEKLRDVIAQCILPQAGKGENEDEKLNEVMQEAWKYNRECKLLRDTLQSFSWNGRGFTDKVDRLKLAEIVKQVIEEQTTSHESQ
# Sequence of EGFR (P00533 25-1210, species assumed): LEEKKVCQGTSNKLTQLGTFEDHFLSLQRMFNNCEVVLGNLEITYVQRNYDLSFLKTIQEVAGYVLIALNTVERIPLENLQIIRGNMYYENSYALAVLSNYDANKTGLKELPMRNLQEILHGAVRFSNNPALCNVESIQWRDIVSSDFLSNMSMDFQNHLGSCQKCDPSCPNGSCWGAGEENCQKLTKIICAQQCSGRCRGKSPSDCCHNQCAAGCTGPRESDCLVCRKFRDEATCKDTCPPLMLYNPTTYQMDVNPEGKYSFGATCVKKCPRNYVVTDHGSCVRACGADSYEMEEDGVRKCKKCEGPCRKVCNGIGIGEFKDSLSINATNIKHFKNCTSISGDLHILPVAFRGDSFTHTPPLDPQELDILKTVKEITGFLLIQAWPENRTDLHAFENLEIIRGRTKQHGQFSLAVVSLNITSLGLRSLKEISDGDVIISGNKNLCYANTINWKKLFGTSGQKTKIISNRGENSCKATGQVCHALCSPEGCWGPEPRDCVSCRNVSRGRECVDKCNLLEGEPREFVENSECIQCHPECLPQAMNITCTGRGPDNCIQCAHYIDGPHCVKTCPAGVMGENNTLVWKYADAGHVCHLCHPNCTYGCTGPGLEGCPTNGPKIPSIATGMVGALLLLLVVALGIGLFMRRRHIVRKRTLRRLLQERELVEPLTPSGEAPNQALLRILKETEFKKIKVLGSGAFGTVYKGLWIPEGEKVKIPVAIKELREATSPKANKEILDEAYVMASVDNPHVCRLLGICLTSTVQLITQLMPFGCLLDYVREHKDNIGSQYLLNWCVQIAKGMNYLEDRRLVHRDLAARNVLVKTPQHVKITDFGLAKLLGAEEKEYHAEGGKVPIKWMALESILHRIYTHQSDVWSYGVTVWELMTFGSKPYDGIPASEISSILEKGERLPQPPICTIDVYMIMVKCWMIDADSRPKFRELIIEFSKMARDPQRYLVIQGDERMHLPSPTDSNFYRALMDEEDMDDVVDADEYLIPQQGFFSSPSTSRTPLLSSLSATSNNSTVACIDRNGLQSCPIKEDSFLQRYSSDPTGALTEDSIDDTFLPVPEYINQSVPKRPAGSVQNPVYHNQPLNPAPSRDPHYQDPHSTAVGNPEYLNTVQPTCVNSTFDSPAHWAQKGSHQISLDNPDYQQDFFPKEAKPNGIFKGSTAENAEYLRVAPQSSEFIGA
# Sequence of CHEK1 (O14757 whole entry, species assumed): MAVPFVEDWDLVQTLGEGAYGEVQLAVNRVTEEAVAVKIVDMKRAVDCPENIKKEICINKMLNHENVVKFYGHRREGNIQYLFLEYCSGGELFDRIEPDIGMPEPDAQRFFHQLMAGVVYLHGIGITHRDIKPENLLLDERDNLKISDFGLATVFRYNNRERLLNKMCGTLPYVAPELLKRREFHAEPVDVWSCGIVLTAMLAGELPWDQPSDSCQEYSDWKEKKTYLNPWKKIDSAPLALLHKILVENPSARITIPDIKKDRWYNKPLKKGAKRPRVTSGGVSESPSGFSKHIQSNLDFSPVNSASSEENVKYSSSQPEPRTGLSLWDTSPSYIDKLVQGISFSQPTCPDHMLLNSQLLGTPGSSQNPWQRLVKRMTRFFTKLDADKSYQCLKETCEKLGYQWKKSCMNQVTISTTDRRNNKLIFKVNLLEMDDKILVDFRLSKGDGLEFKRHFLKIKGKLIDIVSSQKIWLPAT
structure (smiles),measurement,setting,value
"CC(C)Oc1cc(F)ccc1Nc1ncnc2cc(C(=O)NCCCN(C)C)n(C)c12 [Example 40, N-[3-(dimethylamino)propyl]-4-{[4-fluoro-2-(propan-2-yloxy)phenyl]amino}-5-methyl-5H-pyrrolo[3,2-d]pyrimidine-6-carboxamide]",inhibition at 1 µM,GSK3B,0%
same,inhibition at 1 µM,ROS1,0%
same,inhibition at 1 µM,BTK,0%
same,inhibition at 1 µM,SRPK1,0%
same,inhibition at 1 µM,STK11,0%
same,inhibition at 1 µM,EGFR,0%
same,inhibition at 1 µM,FES,5%
same,inhibition at 1 µM,PRAK,0%
same,inhibition at 1 µM,ACVR1B,0%
same,inhibition at 1 µM,SGK1,0%
same,inhibition at 1 µM,JAK3,0%
same,inhibition at 1 µM,PAK4,0%
same,inhibition at 1 µM,NTRK1,0%
same,inhibition at 1 µM,AKT1,0%
same,inhibition at 1 µM,CDK1/CCNB1,0%
same,inhibition at 1 µM,FLT1,8%
same,inhibition at 1 µM,CDK2/CCNA2,0%
same,inhibition at 1 µM,IGF1R,0%
same,inhibition at 1 µM,BLK,4%
same,inhibition at 1 µM,PIK3C2G,4%
same,inhibition at 1 µM,FGFR1,0%
same,inhibition at 1 µM,FER,0%
same,inhibition at 1 µM,NEK2,0%
same,inhibition at 1 µM,CaMK1,0%
same,inhibition at 1 µM,EPHB4,2%
same,inhibition at 1 µM,KDR,5%
same,inhibition at 1 µM,ALK,0%
same,inhibition at 1 µM,LCK,0%
same,inhibition at 1 µM,ERBB4,0%
same,inhibition at 1 µM,CHEK1,0%
same,inhibition at 1 µM,PIK3CG,1%
same,inhibition at 1 µM,CDK6/CCND3,0%
same,inhibition at 1 µM,STK4,0%
same,inhibition at 1 µM,IRAK4,0%
same,inhibition at 1 µM,ROCK2,0%
